Results on 89 compounds are retold here after ChEMBL document CHEMBL5604062, “ASAP - ZIKV NS2B-NS3 protease fluorescence dose response” (2024).

“And” between values parts separate entries of the source, which are not always exact repeats. Equal values may be shown once.

For the assay, the target named is Nonstructural protein 3 (Zika virus, UniProt A0A024AXB9). In words: Functional biochemical assay to identify treatments for viral infectious disease that targets Zika NS2B-NS3 protease. Utilizing a direct enzyme activity measurement method, reading the fluorescence intensity is used to characterize the relative potency of inhibitors as IC50. The arrangement: species or system PRVABC59.
Sequence of Nonstructural protein 3 (A0A024AXB9 whole entry): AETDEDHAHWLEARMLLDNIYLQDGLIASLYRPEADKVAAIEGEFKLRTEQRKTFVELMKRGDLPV
With `c1ccc(COc2cccc3[nH]cc(CN4CCC(c5cscn5)CC4)c23)cc1`, the IC50 is greater than 99.5 µM.
`NCc1cccc(NC(=O)[C@@H](NC(=O)OCc2ccccc2)c2cccc(OC[C@H]3CCCO3)c2)c1` returned an IC50 greater than 99.5 µM.
Take `NCc1cccc([C@@H]2C[C@H]2c2cc(Cl)cc(NC(=O)OCc3ccccc3)c2)c1`: the IC50 was 18.1 µM and 11.3 µM.
The compound `c1ccc2c(CNCc3ccc(-c4cscn4)cc3)c[nH]c2c1` registered an IC50 of 81 µM.
The value for `Cn1cc(N2CCN(Cc3c[nH]c4ccccc34)CC2)cn1` was greater than 99.5 µM; that for `Cc1nocc1S(=O)(=O)N[C@H](C(=O)Nc1cccc(CN)c1)c1ccc(OCc2ccccc2)cc1` was greater than 99.5 µM.
The compound `O=C(c1cccnc1)N1CCN(Cc2c[nH]c3ccccc23)CC1` showed an IC50 greater than 99.5 µM.
The value for `O=c1[nH]c2cccc(N3CCN(Cc4c[nH]c5ccccc45)CC3)c2[nH]1` was greater than 99.5 µM; that for `O=C(Nc1cc(Cl)cc(C(=O)Nc2ncc3n2CCNC3)c1)OCc1ccccc1` was greater than 99.5 µM.
In turn, `NCc1cccc(NC(=O)[C@@H]2[C@@H]3CCCCC[C@@H]3[C@@H]2NC(=O)OCc2ccccc2)c1` showed an IC50 of 54.7 µM.
The same measure for `NC(=O)c1cnccc1N1CCN(Cc2c[nH]c3ccccc23)CC1`: greater than 99.5 µM; for `c1ccc(OC2CCN(Cc3c[nH]c4ccccc34)CC2)cc1`: greater than 99.5 µM.
`NCc1cccc(NC(=O)[C@@H](NC(=O)OCc2ccccc2)c2cccc(OCC3CCC3)c2)c1` had a half-inhibitory concentration (IC50) of 27.3 µM.
`CN(C)Cc1nnc(NC(=O)[C@@H](NC(=O)OCc2ccccc2)c2ccc(OCc3ccccc3)cc2)s1` returned an IC50 greater than 99.5 µM.
The same measure for `NCc1cccc(S(=O)(=O)Nc2cc(Cl)cc(NC(=O)OCc3ccccc3)c2)c1`: greater than 99.5 µM.
Compound `NCc1ccccc1Oc1ccc(S(=O)(=O)Nc2ccc(Cl)cc2C(=O)O)cc1` showed an IC50 greater than 99.5 µM.
The same measure for `CN(C)Cc1csc(NC(=O)[C@@H](NC(=O)OCc2ccccc2)c2ccc(OCc3ccccc3)cc2)n1`: greater than 99.5 µM; for `Cc1nc(COc2ccc([C@@H](NC(=O)OCc3ccccc3)C(=O)Nc3cccc(CN)c3)cc2)cs1`: greater than 99.5 µM.
The same measure for `c1ccc2c(CN3CCN(c4ccncc4)CC3)c[nH]c2c1`: 98 µM.
The value for `O=S(=O)(c1cccnc1)N1CCN(Cc2c[nH]c3ccccc23)CC1` was greater than 99.5 µM.
On to `Fc1cc(F)c2[nH]cc(CN3CCC(c4cscn4)CC3)c2c1F`, for which the IC50 is greater than 99.5 µM.
In turn, `O=C(Nc1cc(Cl)cc(C(=O)Nc2nc3c(s2)CCNC3)c1)OCc1ccccc1` returned an IC50 of 53.5 µM.
The same measure for `COc1c(C)cc(C(=O)Nc2cccc(CN)c2)cc1NC(=O)OCc1ccccc1`: greater than 99.5 µM; for `NCc1cccc(NC(=O)Cc2cc(Cl)cc(NC(=O)OCc3ccccc3)c2)c1`: 46 µM.
In turn, `COc1ccc(CN(C)C)cc1NC(=O)[C@@H](NC(=O)OCc1ccccc1)c1ccc(OCc2ccccc2)cc1` showed an IC50 greater than 99.5 µM.
As for `CC(C)(C)OC(=O)Nc1cccc2[nH]cc(CN3CCC(c4cscn4)CC3)c12`, the half-inhibitory concentration (IC50) is greater than 99.5 µM.
The value for `Cn1nc2c(c1NC(=O)[C@@H](NC(=O)OCc1ccccc1)c1ccc(OCc3ccccc3)cc1)CNC2` was greater than 99.5 µM.
For `Cc1c(NC(=O)OCc2ccccc2)cc(C(F)(F)F)cc1C(=O)Nc1cccc(CN)c1`, the IC50 stood at 60.4 µM.
The same measure for `c1ccc(COc2ccc3[nH]cc(CN4CCC(c5cscn5)CC4)c3c2)cc1`: greater than 99.5 µM; for `NCc1cccc(NC(=O)[C@@H](NC(=O)OCc2ccccc2)c2ccc(OC[C@H]3CCCCO3)cc2)c1`: greater than 99.5 µM.
As to `O=C(Nc1cc(Cl)cc(C(=O)Nc2n[nH]c3c2CNC3)c1)OCc1ccccc1`, the IC50 was 40.3 µM.
The value for `Cc1c[nH]nc1CN1CCC(c2cscn2)CC1` was greater than 99.5 µM; that for `O=C(Nc1cc(Cl)cc(C(=O)Nc2ncc([C@H]3CCCN3)s2)c1)OCc1ccccc1` was greater than 99.5 µM.
The value for `CC(C)(C)c1ccc2[nH]cc(CN3CCC(c4cscn4)CC3)c2c1` was greater than 99.5 µM; that for `CN1CCn2nc(NC(=O)c3cc(Cl)cc(NC(=O)OCc4ccccc4)c3)cc2C1` was greater than 99.5 µM.
The same measure for `O=C(Nc1cc(Cl)cc(C(=O)Nc2n[nH]c3c2CNC32CC2)c1)OCc1ccccc1`: greater than 99.5 µM; for `CN1CCC[C@H]1COc1cccc([C@@H](NC(=O)OCc2ccccc2)C(=O)Nc2cccc(CN)c2)c1`: greater than 99.5 µM; for `CC(C)N1CCc2nc(NC(=O)c3cc(Cl)cc(NC(=O)OCc4ccccc4)c3)sc2C1`: greater than 99.5 µM.
The compound `CCc1cccc2c(CN3CCC(c4cscn4)CC3)c[nH]c12` gave an IC50 greater than 99.5 µM.
The value for `Cc1cc(NC(=O)OCc2ccccc2)cc(C(=O)Nc2cccc(CN)c2)c1C` was greater than 99.5 µM; that for `COc1cc(Br)ccc1[C@@H](NC(=O)OCc1ccccc1)C(=O)Nc1cccc(CN)c1` was 68.9 µM.
The same measure for `CN(C)Cc1ccc(N2CCN(Cc3c[nH]c4ccccc34)CC2)nc1`: greater than 99.5 µM; for `c1ccc(-c2c[nH]nc2CN2CCC(c3cscn3)CC2)cc1`: greater than 99.5 µM; for `CC(C)(C)c1cc(CN2CCC(c3cscn3)CC2)n[nH]1`: greater than 99.5 µM.
The same measure for `CN(C)Cc1cc(NC(=O)[C@@H](NC(=O)OCc2ccccc2)c2ccc(OCc3ccccc3)cc2)ccc1Cl`: greater than 99.5 µM.
Compound `Cc1ccc(NC(=O)OC(C)(C)C)c2[nH]cc(CN3CCC(c4cscn4)CC3)c12` gave a concentration for half-maximal inhibition (IC50) greater than 99.5 µM.
The compound `O=C(Nc1cc(Cl)cc(C(=O)Nc2cnc3n2CCNC3)c1)OCc1ccccc1` had an IC50 greater than 99.5 µM.
`NCc1cccc(NC(=O)[C@@H](NC(=O)OCc2ccccc2)c2ccc(-c3cccc4nonc34)cc2)c1` had a half-inhibitory concentration (IC50) of 6.42 µM.
`c1ccc(CC2CCN(Cc3c[nH]c4ccccc34)CC2)cc1` displayed an IC50 of 89.6 µM.
The same measure for `O=C1CN(Cc2c[nH]c3ccccc23)CCN1c1cccnc1`: greater than 99.5 µM; for `O=C(N[C@@H](C(=O)Nc1n[nH]c2c1CNC21CC1)c1ccc(OCc2ccccc2)cc1)OCc1ccccc1`: greater than 99.5 µM.
The value for `COc1cc2c(CN3CCC(c4cscn4)CC3)c[nH]c2cc1Cl` was 49.6 µM; that for `Cn1nc(NC(=O)[C@@H](NC(=O)OCc2ccccc2)c2ccc(OCc3ccccc3)cc2)c2c1CNC2` was greater than 99.5 µM; that for `c1cncc(N2CCCN(Cc3c[nH]c4ccccc34)CC2)c1` was greater than 99.5 µM.
In turn, `O=C(Nc1cc(Cl)cc(C(=O)Nc2cc3n(n2)CCNC3)c1)OCc1ccccc1` gave an IC50 greater than 99.5 µM.
`Clc1cc(Cl)c2c(CN3CCC(c4cscn4)CC3)c[nH]c2c1` came in with an IC50 of 74.3 µM.
The value for `N#Cc1ccc2[nH]cc(CN3CCC(c4cscn4)CC3)c2c1` was 17.8 µM; that for `COc1cc(NC(=O)OCc2ccccc2)cc(C(=O)Nc2cccc(CN)c2)c1` was 78.8 µM.
The same measure for `NCc1cccc(NC(=O)c2cc(Cl)cc(CNC(=O)OCc3ccccc3)c2)c1`: 22.1 µM; for `NCc1cccc(C(=O)Nc2cc(Cl)cc(NC(=O)OCc3ccccc3)c2)c1`: 16.6 µM.
The value for `c1ccc2c(CN3CC(c4cscn4)C3)c[nH]c2c1` was greater than 99.5 µM; that for `NCc1cccc(NC(=O)c2ccc(OCC(F)(F)F)c(NC(=O)OCc3ccccc3)c2)c1` was 48.7 µM; that for `c1cc(-c2cc(CN3CCC(c4cscn4)CC3)n[nH]2)ccn1` was greater than 99.5 µM.
With `NCc1cccc(NC(=O)[C@@H](NC(=O)OCc2ccccc2)c2ccc(Br)c(Cl)c2)c1`, the IC50 was 9.66 µM and 8.77 µM.
Compound `O=C(N[C@@H](C(=O)Nc1nc2c(s1)CNC2)c1ccc(OCc2ccccc2)cc1)OCc1ccccc1` displayed an IC50 greater than 99.5 µM.
`N#Cc1cccc2c(CN3CCC(c4cscn4)CC3)c[nH]c12` displayed an IC50 greater than 99.5 µM.
The value for `C1=C(c2cccnc2)CN(Cc2c[nH]c3ccccc23)CC1` was greater than 99.5 µM; that for `FC1(c2cccnc2)CN(Cc2c[nH]c3ccccc23)C1` was greater than 99.5 µM; that for `O=C(Nc1cc(Cl)cc(C(=O)Nc2nc3c(s2)CNC3)c1)OCc1ccccc1` was 85.7 µM.
`NCc1ccc(Oc2ccc(S(=O)(=O)Nc3ccc(Cl)cc3C(=O)NCC(F)(F)F)cc2)cc1` came in with an IC50 greater than 99.5 µM.
The same measure for `Cc1ccc(CN(C)C)cc1NC(=O)[C@@H](NC(=O)OCc1ccccc1)c1ccc(OCc2ccccc2)cc1`: greater than 99.5 µM; for `CN1CCn2nc(NC(=O)[C@@H](NC(=O)OCc3ccccc3)c3ccc(OCc4ccccc4)cc3)cc2C1`: greater than 99.5 µM; for `c1cncc([C@@H]2CN(Cc3c[nH]c4ccccc34)CCO2)c1`: greater than 99.5 µM.
The value for `Cc1c(C(F)(F)F)n[nH]c1CN1CCC(c2cscn2)CC1` was greater than 99.5 µM; that for `Cc1[nH]c2ccccc2c1CN1CCC(c2c[nH]c3ncccc23)CC1` was 5.81 µM; that for `O=C(Nc1cccnc1)C1CCN(Cc2c[nH]c3ccccc23)CC1` was 64.3 µM.
Turning to `O=C(N[C@@H](C(=O)Nc1ncc([C@H]2CCCN2)s1)c1ccc(OCc2ccccc2)cc1)OCc1ccccc1`, the IC50 was greater than 99.5 µM.
In turn, `NCc1cccc(NC(=O)c2cc(N)cc(NC(=O)OCc3ccccc3)c2)c1` displayed an IC50 greater than 99.5 µM.
Regarding `CN1CCc2nc(NC(=O)[C@@H](NC(=O)OCc3ccccc3)c3ccc(OCc4ccccc4)cc3)sc2C1`, the half-inhibitory concentration (IC50) was greater than 99.5 µM.
In turn, `CN(Cc1cccnc1)Cc1c[nH]c2ccccc12` gave a concentration for half-maximal inhibition (IC50) greater than 99.5 µM.
In turn, `CCN1CC[C@@H](COc2ccc([C@@H](NC(=O)OCc3ccccc3)C(=O)Nc3cccc(CN)c3)cc2)C1` registered an IC50 greater than 99.5 µM.
The value for `Cn1nc(NC(=O)c2cc(Cl)cc(NC(=O)OCc3ccccc3)c2)c2c1CNC2` was greater than 99.5 µM; that for `c1ccc([C@H](NCc2c[nH]c3ccccc23)c2cccnc2)cc1` was greater than 99.5 µM; that for `COCc1ccccc1Nc1ccc(S(=O)(=O)Nc2ccc(Cl)cc2C(=O)O)cn1` was 98.8 µM.
The value for `CC[C@@H](NCc1c[nH]c2ccccc12)c1cccnc1` was greater than 99.5 µM; that for `NCc1cccc(NC(=O)[C@H](NS(=O)(=O)Cc2ccccc2)c2ccc(OCc3ccccc3)cc2)c1` was 64.5 µM; that for `O=C(O)c1cc(Cl)ccc1NS(=O)(=O)c1ccc(Nc2ccccc2F)nc1` was 46.7 µM.
The same measure for `NCc1cccc(NC(=O)C[C@@H](NC(=O)OCc2ccccc2)c2ccc(Cl)c(Br)c2)c1`: 14.4 µM and 12.8 µM; for `c1ccc([C@@H]2C[C@H]3C[C@@H]2C[C@H]3NCc2n[nH]c3ccccc23)cc1`: greater than 99.5 µM.

As a reminder, the IC50 is the concentration at which inhibition is half-maximal. High values mean a need for much substance, low ones inhibition by little substance.
